Source: patent US11890288B2, “Sulfonamide or sulfinamide compound having effect of inducing BRD4 protein degradation and pharmaceutical use thereof” (MITSUBISHI TANABE PHARMA CORPORATION, priority 2020, dated 2024)
pIC50: −log10 of the molar value.

Legend:
[1] = test system: human prostate cancer LNCaP cells; experiment: Cytotoxic action on LNCaP cells (WST-8, 96 hr); format: cell-based; settings: 96 hr culture
Summary of the method: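 WST-8 viable-cell readout after 96 hr compound exposure in 10% FBS/RPMI1640, 37° C, 5% CO2; cells pre-cultured overnight before dosing. Survival normalised to compound-free control (100%); IC50 by straight-line interpolation between the two concentrations flanking 50% survival.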

BRD4 protein = BRD4 protein (Homo sapiens (Human), UniProt O60885); experiment: BRD4 protein degradation inducing action in LNCaP cells (immunofluorescence, 6 hr); format: cell-based; settings: anti-BRD4 fluorescence intensity
Summary of the method: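 Read-out is BRD4 immunofluorescence intensity (560/572 nm) after 6 hr compound treatment of LNCaP cells in 10% FBS/RPMI1640, with fixation, permeabilization and anti-BRD4 staining. Linear interpolation between the two concentrations flanking 50% of untreated intensity gives DC50.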

DC50 (BRD4 protein)	SMILES	pIC50 [1]
1.4 nM	Cc1sc2c(c1C)C(c1ccc(-c3ccc(C(=O)NCc4ccc(S(=O)(=O)Nc5ccc(C)c6c(C#N)c[nH]c56)cc4)cc3)cc1)=N[C@@H](CC(=O)NCCO)c1nnc(C)n1-2 [Example 37, N-({4-[(3-cyano-4-methyl-1H-indol-7-yl)sulfamoyl]phenyl}methyl)-4′-[(6S)-6-{2-[(2-hydroxyethyl)amino]-2-oxoethyl}-2,3,9-trimethyl-6H-thieno[3,2-f][1,2,4]triazolo[4,3-a][1,4]diazepin-4-yl][1,1′-biphenyl]-4-carboxamide]	8.52
6.7 nM	COC(=O)C[C@@H]1N=C(c2ccc(C3=CCN(C(=O)NCc4ccc(S(=O)(=O)Nc5ccc(C)c6c(C#N)c[nH]c56)cc4)CC3)cc2)c2c(sc(C)c2C)-n2c(C)nnc21 [Example 21, methyl [(6S)-4-(4-{1-[({4-[(3-cyano-4-methyl-1H-indol-7-yl)sulfamoyl]phenyl}methyl)carbamoyl]-1,2,3,6-tetrahydropyridin-4-yl}phenyl)-2,3,9-trimethyl-6H-thieno[3,2-f][1,2,4]triazolo[4,3-a][1,4]diazepin-6-yl]acetate]	8.01
0.064 nM	COC(=O)C[C@@H]1N=C(c2ccc(-c3cc(F)c(C(=O)N[C@H](C)c4ccc(S(=O)(=O)Nc5ccc(C)c6c(C#N)c[nH]c56)cc4)cc3F)cc2)c2c(sc(C)c2C)-n2c(C)nnc21 [Example 97, methyl [(6S)-4-(4′-{[(1R)-1-{4-[(3-cyano-4-methyl-1H-indol-7-yl)sulfamoyl]phenyl}ethyl]carbamoyl}-2′,5′-difluoro[1,1′-biphenyl]-4-yl)-2,3,9-trimethyl-6H-thieno[3,2-f][1,2,4]triazolo[4,3-a][1,4]diazepin-6-yl]acetate]	9.92
0.14 nM	CCc1ccc(NS(=O)(=O)c2ccc([C@@H](C)NC(=O)c3ccc(-c4ccc(C5=N[C@@H](CC(=O)OC)c6nnc(C)n6-c6sc(C)c(C)c65)cc4)c(F)c3F)cc2)c2[nH]cc(C#N)c12 [Example Compound 122, methyl [(6S)-4-(4′-{[(1R)-1-{4-[(3-cyano-4-ethyl-1H-indol-7-yl)sulfamoyl]phenyl}ethyl]carbamoyl}-2′,3′-difluoro[1,1′-biphenyl]-4-yl)-2,3,9-trimethyl-6H-thieno[3,2-f][1,2,4]triazolo[4,3-a][1,4]diazepin-6-yl]acetate]	9.41
5.9 nM	COC(=O)C[C@@H]1N=C(c2ccc(-c3ccc(C(=O)NCC#Cc4ccc(S(=O)(=O)Nc5ccc(C)c6c(C#N)c[nH]c56)cc4)cc3)cc2)c2c(sc(C)c2C)-n2c(C)nnc21 [Example 31, methyl [(6S)-4-{4′-[(3-{4-[(3-cyano-4-methyl-1H-indol-7-yl)sulfamoyl]phenyl}prop-2-yn-1-yl)carbamoyl][1,1′-biphenyl]-4-yl}-2,3,9-trimethyl-6H-thieno[3,2-f][1,2,4]triazolo[4,3-a][1,4]diazepin-6-yl]acetate]	8.38
15 nM	COC(=O)C[C@@H]1N=C(c2ccc(C#CC(=O)NCc3ccc(S(=O)(=O)Nc4ccc(C)c5c(C#N)c[nH]c45)cc3)cc2)c2c(sc(C)c2C)-n2c(C)nnc21 [Example 5, methyl [(6S)-4-(4-{3-[({4-[(3-cyano-4-methyl-1H-indol-7-yl)sulfamoyl]phenyl}methyl)amino]-3-oxoprop-1-yn-1-yl}phenyl)-2,3,9-trimethyl-6H-thieno[3,2-f][1,2,4]triazolo[4,3-a][1,4]diazepin-6-yl]acetate]	8.39
0.37 nM	COC(=O)C[C@@H]1N=C(c2ccc(-c3ccc(C(=O)N[C@H](C)c4ccc(S(=O)(=O)Nc5ccc(C)c6c(C#N)c[nH]c56)cc4)cc3C)cc2)c2c(sc(C)c2C)-n2c(C)nnc21 [Example 88, methyl [(6S)-4-(4′-{[(1R)-1-{4-[(3-cyano-4-methyl-1H-indol-7-yl)sulfamoyl]phenyl}ethyl]carbamoyl}-2′-methyl[1,1′-biphenyl]-4-yl)-2,3,9-trimethyl-6H-thieno[3,2-f][1,2,4]triazolo[4,3-a][1,4]diazepin-6-yl]acetate]	9.77
0.069 nM	CCc1ccc(NS(=O)(=O)c2ccc(CNC(=O)c3ccc(-c4ccc(C5=N[C@@H](CC(=O)OC)c6nnc(C)n6-c6sc(C)c(C)c65)cc4)cn3)cc2)c2[nH]cc(C#N)c12 [Example 108, methyl [(6S)-4-(4-{6-[({4-[(3-cyano-4-ethyl-1H-indol-7-yl)sulfamoyl]phenyl}methyl)carbamoyl]pyridin-3-yl}phenyl)-2,3,9-trimethyl-6H-thieno[3,2-f][1,2,4]triazolo[4,3-a][1,4]diazepin-6-yl]acetate]	9.64
0.036 nM	COC(=O)C[C@@H]1N=C(c2ccc(-c3cnc(C(=O)NCc4ccc(S(=O)(=O)Nc5ccc(C)c6c(C#N)c[nH]c56)cc4)cn3)cc2)c2c(sc(C)c2C)-n2c(C)nnc21 [Example 65, methyl [(6S)-4-(4-{5-[({4-[(3-cyano-4-methyl-1H-indol-7-yl)sulfamoyl]phenyl}methyl)carbamoyl]pyrazin-2-yl}phenyl)-2,3,9-trimethyl-6H-thieno[3,2-f][1,2,4]triazolo[4,3-a][1,4]diazepin-6-yl]acetate]	10.15
0.074 nM	COC(=O)C[C@@H]1N=C(c2ccc(-c3ccc(C(=O)N[C@H](C)c4ccc(S(=O)(=O)Nc5ccc(C)c6c(C#N)c[nH]c56)cc4)cc3F)cc2)c2c(sc(C)c2C)-n2c(C)nnc21 [Example 85, methyl [(6S)-4-(4′-{[(1R)-1-{4-[(3-cyano-4-methyl-1H-indol-7-yl)sulfamoyl]phenyl}ethyl]carbamoyl}-2′-fluoro[1,1′-biphenyl]-4-yl)-2,3,9-trimethyl-6H-thieno[3,2-f][1,2,4]triazolo[4,3-a][1,4]diazepin-6-yl]acetate]	9.59
0.28 nM	CCc1ccc(NS(=O)(=O)c2ccc(CNC(=O)c3ccc(-c4ccc(C5=N[C@@H](CC(=O)OC)c6nnc(C)n6-c6sc(C)c(C)c65)cc4)cc3C)cc2)c2[nH]cc(C#N)c12 [Example Compound 114, methyl [(6S)-4-{4′-[({4-[(3-cyano-4-ethyl-1H-indol-7-yl)sulfamoyl]phenyl}methyl)carbamoyl]-3′-methyl[1,1′-biphenyl]-4-yl}-2,3,9-trimethyl-6H-thieno[3,2-f][1,2,4]triazolo[4,3-a][1,4]diazepin-6-yl]acetate]	9.47
0.18 nM	COC(=O)C[C@@H]1N=C(c2ccc(-c3ccc(C(=O)NCc4ccc(S(=O)(=O)Nc5ccc(C)c6c(C#N)c[nH]c56)cc4)nn3)cc2)c2c(sc(C)c2C)-n2c(C)nnc21 [Example Compound 149, methyl [(6S)-4-(4-{6-[({4-[(3-cyano-4-methyl-1H-indol-7-yl)sulfamoyl]phenyl}methyl)carbamoyl]pyridazin-3-yl}phenyl)-2,3,9-trimethyl-6H-thieno[3,2-f][1,2,4]triazolo[4,3-a][1,4]diazepin-6-yl]acetate]	9.27
0.51 nM	Cc1sc2c(c1C)C(c1ccc(-c3ccc(C(=O)NCc4ccc(S(=O)(=O)Nc5ccc(C)c6c(C#N)c[nH]c56)cc4)cc3F)cc1)=N[C@@H](CC(=O)OC(C)(C)C)c1nnc(C)n1-2 [Example Compound 142, t-butyl [(6S)-4-{4′-[({4-[(3-cyano-4-methyl-1H-indol-7-yl)sulfamoyl]phenyl}methyl)carbamoyl]-2′-fluoro[1,1′-biphenyl]-4-yl)-2,3,9-trimethyl-6H-thieno[3,2-f][1,2,4]triazolo[4,3-a][1,4]diazepin-6-yl]acetate]	8.89
65 nM	Cc1sc2c(c1C)C(c1ccc(-c3cc(F)c(C(=O)NCc4ccc(S(=O)(=O)Nc5ccc(C)c6c(C#N)c[nH]c56)cc4)c(Cl)c3)cc1)=N[C@@H](C)c1nnc(C)n1-2 [Example 72, 3-chloro-N-({4-[(3-cyano-4-methyl-1H-indol-7-yl)sulfamoyl]phenyl}methyl)-5-fluoro-4′-[(6S)-2,3,6,9-tetramethyl-6H-thieno[3,2-f][1,2,4]triazolo[4,3-a][1,4]diazepin-4-yl][1,1′-biphenyl]-4-carboxamide]	8.26
0.13 nM	Cc1sc2c(c1C)C(c1ccc(-c3cnc(C(=O)NCc4ccc(S(=O)(=O)Nc5ccc(C)c6c(C#N)c[nH]c56)cc4)nc3)cc1)=N[C@@H](CC(=O)OC(C)(C)C)c1nnc(C)n1-2 [Example Compound 147, t-butyl [(6S)-4-(4-{2-[({4-[(3-cyano-4-methyl-1H-indol-7-yl)sulfamoyl]phenyl}methyl)carbamoyl]pyrimidin-5-yl}phenyl)-2,3,9-trimethyl-6H-thieno[3,2-f][1,2,4]triazolo[4,3-a][1,4]diazepin-6-yl]acetate]	9.38
0.035 nM	Cc1sc2c(c1C)C(c1ccc(-c3ccc(C(=O)NCc4ccc(S(=O)(=O)Nc5ccc(C)c6c(C#N)c[nH]c56)cc4)cc3)cc1)=N[C@@H](CC(=O)OC(C)C)c1nnc(C)n1-2 [Example Compound 131, isopropyl [(6S)-4-{4′-[({4-[(3-cyano-4-methyl-1H-indol-7-yl)sulfamoyl]phenyl}methyl)carbamoyl][1,1′-biphenyl]-4-yl}-2,3,9-trimethyl-6H-thieno[3,2-f][1,2,4]triazolo[4,3-a][1,4]diazepin-6-yl]acetate]	10.19
0.17 nM	CCc1ccc(NS(=O)(=O)c2ccc([C@@H](C)NC(=O)c3ccc(-c4ccc(C5=N[C@@H](CC(=O)OC)c6nnc(C)n6-c6sc(C)c(C)c65)cc4)c(F)c3)cc2)c2[nH]cc(C#N)c12 [Example Compound 121, methyl [(6S)-4-(4′-{[(1R)-1-{4-[(3-cyano-4-ethyl-1H-indol-7-yl)sulfamoyl]phenyl}ethyl]carbamoyl}-2′-fluoro[1,1′-biphenyl]-4-yl)-2,3,9-trimethyl-6H-thieno[3,2-f][1,2,4]triazolo[4,3-a][1,4]diazepin-6-yl]acetate]	9.66
